Data: patent US20180008587A1, “THIOHYDANTOIN ANDROGEN RECEPTOR ANTAGONISTS FOR THE TREATMENT OF CANCER” (Jaressen Pharmaceutica NV, priority 2016, published 2018)
Positions count from the first letter of the chain named. Where two headings read alike, the source gives them in different places.

How the values were obtained:
Format in all cases: cell-based
[1] = molecular target: T1, wild-type Androgen Receptor (AR-wt) (Homo sapiens, UniProt P10275); experiment: LNCaP-AR-wt ANT reporter assay (ARE firefly luciferase, antagonist mode); conditions: for IC50: antagonist mode, 400 pM R-1881 challenge, −Log10(IC50 [Molar]), read-out: LNCaP-AR-wt ANT pIC50 (converted); for Emax: read-out: LNCaP-AR-wt ANT MAX % Inh
T1 construct: expressed in transfected cells; host or cells: LNCaP (LNCaP AR (cs))
T1 sequence (P10275 1-920): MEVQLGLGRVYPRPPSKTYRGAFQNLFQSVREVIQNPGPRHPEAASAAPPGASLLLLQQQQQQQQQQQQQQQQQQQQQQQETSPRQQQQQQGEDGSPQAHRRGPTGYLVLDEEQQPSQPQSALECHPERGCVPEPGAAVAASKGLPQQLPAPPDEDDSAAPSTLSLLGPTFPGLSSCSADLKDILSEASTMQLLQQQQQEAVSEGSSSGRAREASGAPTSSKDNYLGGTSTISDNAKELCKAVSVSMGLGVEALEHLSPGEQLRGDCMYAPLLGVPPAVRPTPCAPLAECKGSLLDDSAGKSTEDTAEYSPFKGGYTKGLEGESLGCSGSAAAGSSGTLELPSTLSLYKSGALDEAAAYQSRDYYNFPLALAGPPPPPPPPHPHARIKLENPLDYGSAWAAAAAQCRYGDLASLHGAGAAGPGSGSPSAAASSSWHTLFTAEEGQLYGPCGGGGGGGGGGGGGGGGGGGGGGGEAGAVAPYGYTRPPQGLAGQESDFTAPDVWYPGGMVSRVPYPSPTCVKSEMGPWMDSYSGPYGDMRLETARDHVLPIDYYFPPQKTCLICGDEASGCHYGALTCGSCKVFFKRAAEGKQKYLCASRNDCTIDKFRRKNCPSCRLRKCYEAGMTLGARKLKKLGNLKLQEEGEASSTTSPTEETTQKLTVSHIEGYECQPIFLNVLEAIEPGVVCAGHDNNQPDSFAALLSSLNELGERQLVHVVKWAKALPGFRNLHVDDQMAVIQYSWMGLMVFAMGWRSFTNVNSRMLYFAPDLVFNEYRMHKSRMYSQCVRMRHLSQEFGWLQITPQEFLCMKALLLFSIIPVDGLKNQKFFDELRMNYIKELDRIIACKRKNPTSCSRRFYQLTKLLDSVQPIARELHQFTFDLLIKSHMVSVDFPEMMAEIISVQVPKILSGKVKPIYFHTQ
Method in brief: (§1)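 LNCaP cells stably expressing wild-type or F876L AR (puromycin-selected pooled populations) were cultured in charcoal-stripped serum medium. In antagonist mode, agonist challenge was 400 pM for wild-type and 600 pM for F876L.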

[2] = molecular target: T1, wild-type Androgen Receptor (AR-wt); experiment: LNCaP-AR-wt AG reporter assay (ARE firefly luciferase, agonist mode); conditions: for Emax: read-out: LNCaP-AR-wt AG MAX % Stim
Method in brief: as §1

[3] = molecular target: T2, F876L mutant Androgen Receptor (AR-F876L) (Homo sapiens, UniProt P10275, F877L); experiment: LNCaP-AR-F876L ANT reporter assay (ARE firefly luciferase, antagonist mode); conditions: for Emax: read-out: LNCaP-AR-F876L ANT MAX % Inh; for IC50: read-out: LNCaP-AR-F876L ANT pIC50 (converted)
T2 construct: expressed in transfected cells; host or cells: LNCaP (LNCaP F876L)
T2 sequence (P10275 1-920 F877L): T1 sequence (P10275 1-920) with F877L
Method in brief: as §1

[4] = molecular target: T2, F876L mutant Androgen Receptor (AR-F876L); experiment: LNCaP-AR-F876L AG reporter assay (ARE firefly luciferase, agonist mode); conditions: for Emax: read-out: LNCaP-AR-F876L AG MAX % Stim
Method in brief: as §1

[5] = maximum % inhibition of R1881 control response over tested concentration range
[6] = agonist mode, −Log10(EC50 [Molar]), read-out: LNCaP-AR-wt AG pEC50 (converted)
[7] = maximum % stimulation (agonist response) over tested concentration range
[8] = agonist mode, −Log10(EC50 [Molar]), read-out: LNCaP-AR-F876L AG pEC50 (converted)

Structure (SMILES)	IC50 [1] [µM]	Emax [1, 5] [%]	EC50 [2, 6] [µM]	Emax [2, 7] [%]	Emax [3, 5] [%]	IC50 [3] [µM]	EC50 [4, 8] [µM]	Emax [4, 7] [%]	Emax [1] [%]	EC50 [2] [µM]	Emax [2] [%]	Emax [3] [%]	EC50 [4] [µM]	Emax [4] [%]
N#Cc1ncc(N2C(=O)C3(CCC3)N(c3ccc(OCCN4CCNCC4)c(F)c3)C2=S)cc1C(F)(F)F [Cpd 105, 5-[8-[3-fluoro-4-(2-piperazin-1-ylethoxy)phenyl]-5-oxo-7-thioxo-6,8-diazaspiro[3.4]octan-6-yl]-3-(trifluoromethyl)pyridine-2-carbonitrile]	0.575	95.7	> 15.1	1.2	95.3	0.49	> 15.1	2.3						
Cc1cc(N2C(=O)C3(CCC3)N(c3ccc(OCCN4CCN(C)CC4)cc3)C2=S)cnc1C#N [Cpd 10, 3-methyl-5-[8-[4-[2-(4-methylpiperazin-1-yl)ethoxy]phenyl]-5-oxo-7-thioxo-6,8-diazaspiro[3.4]octan-6-yl]pyridine-2-carbonitrile]	0.724	99	> 15.1	0.6	98.4	0.49	> 15.1	0.1						
CC(C)NC(=O)c1ccc(N2C(=S)N(c3cnc(C#N)c(C(F)(F)F)c3)C(=O)C23CCC3)cc1F [Cpd 23, 4-[6-[6-cyano-5-(trifluoromethyl)-3-pyridyl]-5-oxo-7-thioxo-6,8-diazaspiro[3.4]octan-8-yl]-2-fluoro-N-isopropyl-benzamide]	1.26	99.4	> 15.1	0.9	99.6	0.347	> 15.1	0						
N#Cc1ncc(N2C(=O)C3(CCC3)N(c3ccc(C(=O)NCCN4CCOCC4)c(F)c3)C2=S)cc1C(F)(F)F [Cpd 22, 4-[6-[6-cyano-5-(trifluoromethyl)-3-pyridyl]-5-oxo-7-thioxo-6,8-diazaspiro[3.4]octan-8-yl]-2-fluoro-N-(2-morpholinoethyl)benzamide]	2.45	99.5	> 15.1	0	99.7	0.724	> 15.1	0.1						
Cc1ccc(NC(=O)c2ccc(N3C(=S)N(c4cnc(C#N)c(C)c4)C(=O)C34CCC4)cc2F)cn1 [Cpd 75, 4-[6-(6-cyano-5-methyl-3-pyridyl)-5-oxo-7-thioxo-6,8-diazaspiro[3.4]octan-8-yl]-2-fluoro-N-(6-methyl-3-pyridyl)benzamide]	0.562					0.145			101	> 15.1	0.8	100	> 15.1	0.8
N#Cc1ncc(N2C(=O)C3(CCC3)N(c3ccc(OC4CCN(CCO)CC4)cc3)C2=S)cc1C(F)(F)F [Cpd 51, 5-[8-[4-[[1-(2-hydroxyethyl)-4-piperidyl]oxy]phenyl]-5-oxo-7-thioxo-6,8-diazaspiro[3.4]octan-6-yl]-3-(trifluoromethyl)pyridine-2-carbonitrile]	0.389					0.2			99	> 15.1	0.8	101	> 15.1	0.2
CNS(=O)(=O)c1ccc(N2C(=S)N(c3cnc(C#N)c(C(F)(F)F)c3)C(=O)C23CCC3)cc1 [Cpd 25, 4-[6-[6-cyano-5-(trifluoromethyl)-3-pyridyl]-5-oxo-7-thioxo-6,8-diazaspiro[3.4]octan-8-yl]-N-methyl-benzenesulfonamide]	1	98	> 15.1	1.5	99.7	0.525	> 15.1	0.2						
CCCNC(=O)c1ccc(N2C(=S)N(c3cnc(C#N)c(C(F)(F)F)c3)C(=O)C23CCC3)cc1F [Cpd 68, 4-[6-[6-cyano-5-(trifluoromethyl)-3-pyridyl]-5-oxo-7-thioxo-6,8-diazaspiro[3.4]octan-8-yl]-2-fluoro-N-propyl-benzamide]	0.589					0.427			96.7	> 15.1	0.2	98	> 15.1	0.9
N#Cc1ncc(N2C(=O)C3(CCC3)N(c3cccnc3)C2=S)cc1C(F)(F)F [Cpd 9, 5-[5-oxo-8-(3-pyridyl)-7-thioxo-6,8-diazaspiro[3.4]octan-6-yl]-3-(trifluoromethyl)pyridine-2-carbonitrile]	0.871					0.692			99	> 15.1	-0.2	100	> 15.1	0
CC(C)CCNC(=O)c1ccc(N2C(=S)N(c3cnc(C#N)c(C(F)(F)F)c3)C(=O)C23CCC3)cc1F [Cpd 27, 4-[6-[6-cyano-5-(trifluoromethyl)-3-pyridyl]-5-oxo-7-thioxo-6,8-diazaspiro[3.4]octan-8-yl]-2-fluoro-N-isopentyl-benzamide]	0.912					0.631			96.8	> 15.1	0.4	98.8	> 15.1	0.2
N#Cc1ncc(N2C(=O)C3(CCC3)N(c3ccc(C(=O)NCCCN4CCOCC4)c(F)c3)C2=S)cc1C(F)(F)F [Cpd 72, 4-[6-[6-cyano-5-(trifluoromethyl)-3-pyridyl]-5-oxo-7-thioxo-6,8-diazaspiro[3.4]octan-8-yl]-2-fluoro-N-(3-morpholinopropyl)benzamide]	0.251					0.102			102	> 15.1	0.3	101	> 15.1	0.6
CN1CCN(CCNC(=O)c2ccc(N3C(=S)N(c4cnc(C#N)c(C(F)(F)F)c4)C(=O)C34CCC4)cc2F)CC1 [Cpd 121, 4-[6-[6-cyano-5-(trifluoromethyl)-3-pyridyl]-5-oxo-7-thioxo-6,8-diazaspiro[3.4]octan-8-yl]-2-fluoro-N-[2-(4-methylpiperazin-1-yl)ethyl]benzamide]	2.75	93.6	> 15.1	1.2	98.7	0.575	> 15.1	3						
